Tests used:
[1] = biological target: LZK (Homo sapiens (Human), UniProt O43283); experiment: LZK biochemical assay (TR-FRET, MKK7 phosphorylation)
How it was run: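 Readout is the HTRF ratio (XL665/Eu) from an EDTA-containing detection mix of 0.4 nM Eu-anti-phospho-MKK7 (T275/S277) and 20 nM XL665-anti-His, incubated 16 h at 32° C. This followed a 90 min RT reaction of 10 nM LZK catalytic domain, 15 nM MKK7 and 15 μM ATP at pH 7.5.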

[2] = biological target: DLK (Homo sapiens (Human), UniProt Q12852); experiment: DLK biochemical assay (TR-FRET, MKK7 phosphorylation)
How it was run: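 TR-FRET ratio (665/Eu) reports MKK7 T275/S277 phosphorylation, lowered by DLK inhibition. Reaction: 60 μM ATP, 15 nM MKK7, 10 nM DLK catalytic domain, 90 min room temperature; detection incubation 16 h, 37° C. (1536-well) or 4° C. (384-well). Final concentrations.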

Chain of DLK (Q12852 1-520): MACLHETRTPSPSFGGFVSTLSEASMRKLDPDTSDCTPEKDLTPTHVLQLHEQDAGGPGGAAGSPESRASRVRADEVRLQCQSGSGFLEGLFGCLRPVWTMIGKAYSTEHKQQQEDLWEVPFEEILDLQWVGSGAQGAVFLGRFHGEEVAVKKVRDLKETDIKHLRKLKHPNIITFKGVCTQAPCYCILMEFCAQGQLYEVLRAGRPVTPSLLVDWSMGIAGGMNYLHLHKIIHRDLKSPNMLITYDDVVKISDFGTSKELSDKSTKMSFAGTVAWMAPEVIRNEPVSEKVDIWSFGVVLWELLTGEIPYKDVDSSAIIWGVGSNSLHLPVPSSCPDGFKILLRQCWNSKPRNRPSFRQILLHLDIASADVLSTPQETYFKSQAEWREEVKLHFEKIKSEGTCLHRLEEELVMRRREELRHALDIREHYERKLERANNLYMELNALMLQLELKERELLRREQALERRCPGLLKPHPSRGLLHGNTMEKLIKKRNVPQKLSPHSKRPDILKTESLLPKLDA
Chain of LZK (O43283 168-409): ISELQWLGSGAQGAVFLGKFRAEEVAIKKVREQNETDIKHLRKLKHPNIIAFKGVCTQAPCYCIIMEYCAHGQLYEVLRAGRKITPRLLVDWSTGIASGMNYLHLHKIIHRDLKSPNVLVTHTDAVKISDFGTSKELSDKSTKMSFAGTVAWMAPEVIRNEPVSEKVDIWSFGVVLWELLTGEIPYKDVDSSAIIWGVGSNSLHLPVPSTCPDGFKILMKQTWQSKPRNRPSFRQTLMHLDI

Compound	IC50 [1] [µM]	IC50 [2] [µM]
CC[C@H](C)NC(=O)c1cc(-c2csc(C(=O)N[C@@H](C)c3ccc(F)cc3)c2)cc2nc(N)nn12 [Compound 160]	0.052	0.0063
CC[C@H](C)NC(=O)c1cc(-c2csc(C(=O)NCc3ccc(F)cc3)c2)cc2nc(N)nn12 [Compound 161]	0.043	0.021
CC[C@H](NC(=O)c1cc(-c2cc(C(=O)N[C@H]3CCOC3)n3nc(N)nc3c2)cs1)c1ccc(F)cc1 [Compound 162]	0.077	0.0035
Nc1nc2ccc(-c3csc(C(=O)NCc4ccccc4)c3)cn2n1 [Compound 168]	4.6	0.38
Nc1nc2ccc(-c3csc(C(=O)NC4CCCCC4)c3)cn2n1 [Compound 169]	> 30	1.1
Nc1nc2ccc(-c3csc(C(=O)NC4CCCC4)c3)cn2n1 [Compound 170]	> 30	0.52
Nc1nc2ccc(-c3csc(C(=O)NC4CCC4)c3)cn2n1 [Compound 171]	> 30	0.97
Nc1nc2ccc(-c3csc(C(=O)NC4CC4)c3)cn2n1 [Compound 172]	> 30	2.6
CC(C)NC(=O)c1cc(-c2ccc3nc(N)nn3c2)cs1 [Compound 173]	19	2.15
Nc1nc2ccc(-c3csc(C(=O)NC4CCCCCC4)c3)cn2n1 [Compound 174]	> 30	0.44
CN(C(=O)c1cc(-c2ccc3nc(N)nn3c2)cs1)C1CCCCC1 [Compound 175]	> 30	9.55
Nc1nc2ccc(-c3csc(C(=O)NC4CCCC(C(F)(F)F)C4)c3)cn2n1 (centres unmarked) [Compound 176]	> 30	1
CCO[C@H]1CC[C@H](NC(=O)c2cc(-c3ccc4nc(N)nn4c3)cs2)CC1 [Compound 177]	> 30	1.6
CCN1CCCC(NC(=O)c2cc(-c3ccc4nc(N)nn4c3)cs2)C1 (centres unmarked) [Compound 180]	> 30	2
CN1CCCC(NC(=O)c2cc(-c3ccc4nc(N)nn4c3)cs2)C1 (centres unmarked) [Compound 181]	> 30	3.5
COc1cccc(CNC(=O)c2cc(-c3ccc4nc(N)nn4c3)cs2)c1 [Compound 182]	25	0.133
CN1C2CCC1CC(NC(=O)c1cc(-c3ccc4nc(N)nn4c3)cs1)C2 (centres unmarked) [Compound 201]	> 30	2.8

The remaining lines, values ahead:

IC50 [1] [µM]	IC50 [2] [µM]	Compound
24	1.95	Nc1nc2ccc(-c3csc(C(=O)NC4CCCOC4)c3)cn2n1 (centres unmarked) [Compound 184]
26	1.7	Nc1nc2ccc(-c3csc(C(=O)NC4CCOCC4)c3)cn2n1 [Compound 185]
> 30	0.71	Nc1nc2ccc(-c3csc(C(=O)NCC4CCCCC4)c3)cn2n1 [Compound 187]
> 30	2	Nc1nc2ccc(-c3csc(C(=O)NCC4CCOCC4)c3)cn2n1 [Compound 188]
> 30	0.53	Nc1nc2ccc(-c3csc(C(=O)NCC4CCCC4)c3)cn2n1 [Compound 190]
> 30	0.32	CCOc1cccc(CNC(=O)c2cc(-c3ccc4nc(N)nn4c3)cs2)c1 [Compound 191]
> 30	0.46	Nc1nc2ccc(-c3csc(C(=O)NCc4cccc(OC(F)(F)F)c4)c3)cn2n1 [Compound 192]
5	0.615	Nc1nc2ccc(-c3csc(C(=O)NCc4cccc(Cl)c4)c3)cn2n1 [Compound 193]
> 30	0.67	Cc1cccc(CNC(=O)c2cc(-c3ccc4nc(N)nn4c3)cs2)c1 [Compound 194]
8.8	0.48	Nc1nc2ccc(-c3csc(C(=O)NCc4cccc(OC(F)F)c4)c3)cn2n1 [Compound 195]
9.49	0.35	CC(C)Oc1cccc(CNC(=O)c2cc(-c3ccc4nc(N)nn4c3)cs2)c1 [Compound 196]
> 30	1.6	Nc1nc2ccc(-c3csc(C(=O)NCC4CCCOC4)c3)cn2n1 (centres unmarked) [Compound 197]
> 30	0.82	COc1ccc(CNC(=O)c2cc(-c3ccc4nc(N)nn4c3)cs2)cc1OC [Compound 202]
13	1.01	COc1ccc(CNC(=O)c2cc(-c3ccc4nc(N)nn4c3)cs2)cc1 [Compound 203]
> 30	0.3	Nc1nc2ccc(-c3csc(C(=O)NCc4cccc(OCC(F)(F)F)c4)c3)cn2n1 [Compound 204]
12	0.23	Nc1nc2ccc(-c3csc(C(=O)NCc4cccc(OC5CC5)c4)c3)cn2n1 [Compound 205]
28	0.55	Nc1nc2ccc(-c3csc(C(=O)NCc4cccnc4)c3)cn2n1 [Compound 206]

Reference: patent US20230382904A1, “SUBSTITUTED 4-([1,2,4]TRIAZOLO[1,5-a]PYRIDIN-6-YL)THIOPHENE-2-CARBOXAMIDE DERIVATIVES AND USE THEREOF” (The Johns Hopkins University, priority 2020, published 2023)
